Results on 20 compounds are retold here after patent US9840513B2 (AbbVie S.à.r.l., priority 2015, dated 2017).

In this experiment the target is T1, F508delCFTR cell surface expression in CFBE41o-F508delCFTR-HRP cells (Homo sapiens, UniProt P13569, DEL508-508).
T1 construct: fused on or other part: Horseradish peroxidase (HRP) reporter inserted in the fourth exofacial (extracellular) loop of CFTR; expression is doxycycline-inducible
Description: Cell Surface Expression-Horse Radish Peroxidase (CSE-HRP) Assay. Type of experiment: cell-based. To be noted: for EC50: CFBE41o-F508delCFTR-HRP cells, 18-24 hours at 33° C., 8-point curve, highest concentration 20 μM; for Maximum % activity (%): maximum at any tested concentration, normalized to on-plate positive control (3 μM). In outline: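 CFBE41o- cells with HRP-tagged F508delCFTR, expression induced by 0.5 μg/mL doxycycline for 72 h at 37 °C, then compound for 18-24 h at 33 °C (8-point, 3-fold, top 20 μM). Surface HRP measured by luminol luminescence; % activity normalised to 3 μM positive-control corrector; EC50 from variable-slope sigmoidal fit, three replicate plates.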

T1 sequence (P13569 with tags, fused parts or gaps DEL508-508 limits assumed): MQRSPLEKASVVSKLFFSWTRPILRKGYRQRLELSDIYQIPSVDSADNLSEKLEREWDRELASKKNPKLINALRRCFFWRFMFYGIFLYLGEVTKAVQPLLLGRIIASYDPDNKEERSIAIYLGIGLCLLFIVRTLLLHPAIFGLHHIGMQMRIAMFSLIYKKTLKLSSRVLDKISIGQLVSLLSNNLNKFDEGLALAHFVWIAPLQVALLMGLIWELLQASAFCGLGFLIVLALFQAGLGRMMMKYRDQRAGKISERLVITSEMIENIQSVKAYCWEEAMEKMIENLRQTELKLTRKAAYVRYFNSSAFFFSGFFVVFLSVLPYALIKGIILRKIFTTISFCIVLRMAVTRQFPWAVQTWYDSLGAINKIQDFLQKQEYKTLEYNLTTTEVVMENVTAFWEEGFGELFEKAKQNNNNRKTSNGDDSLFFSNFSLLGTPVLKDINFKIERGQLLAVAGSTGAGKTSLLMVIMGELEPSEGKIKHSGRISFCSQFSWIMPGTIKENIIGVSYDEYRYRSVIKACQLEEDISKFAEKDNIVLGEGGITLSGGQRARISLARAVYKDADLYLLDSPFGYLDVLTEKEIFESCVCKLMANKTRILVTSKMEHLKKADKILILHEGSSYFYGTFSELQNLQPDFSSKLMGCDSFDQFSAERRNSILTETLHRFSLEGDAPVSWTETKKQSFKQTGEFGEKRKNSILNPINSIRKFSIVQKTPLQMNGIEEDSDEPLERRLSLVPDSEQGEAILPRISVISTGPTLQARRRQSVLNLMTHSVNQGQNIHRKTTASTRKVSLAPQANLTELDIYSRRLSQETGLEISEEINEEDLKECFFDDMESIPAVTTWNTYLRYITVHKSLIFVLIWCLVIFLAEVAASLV
T1 sequence (P13569 919-1480 limits assumed, stated change not applied): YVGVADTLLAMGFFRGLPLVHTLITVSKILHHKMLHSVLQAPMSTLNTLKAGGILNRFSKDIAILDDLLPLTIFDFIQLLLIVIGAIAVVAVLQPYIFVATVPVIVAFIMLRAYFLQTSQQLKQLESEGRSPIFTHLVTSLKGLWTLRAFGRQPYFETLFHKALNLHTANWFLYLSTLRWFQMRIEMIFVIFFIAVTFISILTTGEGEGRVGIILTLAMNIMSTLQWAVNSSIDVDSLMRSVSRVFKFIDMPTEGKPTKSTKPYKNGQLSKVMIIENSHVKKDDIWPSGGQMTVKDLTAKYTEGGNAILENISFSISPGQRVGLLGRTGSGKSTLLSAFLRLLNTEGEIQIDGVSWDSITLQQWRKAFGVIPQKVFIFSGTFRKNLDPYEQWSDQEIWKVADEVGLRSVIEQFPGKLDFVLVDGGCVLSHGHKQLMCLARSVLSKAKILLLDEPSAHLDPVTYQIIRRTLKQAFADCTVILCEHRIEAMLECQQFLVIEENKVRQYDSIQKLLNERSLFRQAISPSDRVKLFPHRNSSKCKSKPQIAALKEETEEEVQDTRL

In the case of `C[C@]1(C(=O)N[C@@H]2C[C@H](c3cccc(C(=O)O)c3)Oc3ccccc32)COc2cc3c(cc21)OC(F)(F)O3` [Example 22, 3-[(2R,4R)-4-{[(7R)-2,2-difluoro-7-methyl-6,7-dihydro-2H-furo[2,3-f][1,3]benzodioxole-7-carbonyl]amino}-3,4-dihydro-2H-1-benzopyran-2-yl]benzoic acid], a half-maximal effect (EC50) was put at 640 nM and the “Maximum % activity (%)” value stood at 156%.

In the case of `COc1ccc2c(c1)O[C@@H](c1ccc(C(=O)N3CCC(F)(F)CC3)cn1)C[C@H]2NC(=O)[C@@]1(C)COc2cc3c(cc21)OC(F)(F)O3` [Example 218, (7R)—N-{(2R,4R)-2-[5-(4,4-difluoropiperidine-1-carbonyl)pyridin-2-yl]-7-methoxy-3,4-dihydro-2H-1-benzopyran-4-yl}-2,2-difluoro-7-methyl-6,7-dihydro-2H-furo[2,3-f][1,3]benzodioxole-7-carboxamide], a half-maximal response (EC50) required 10 nM and the “Maximum % activity (%)” value amounted to 116%.

Regarding `COc1ccc2c(c1)O[C@H](Cn1ncccc1=O)C[C@@H]2NC(=O)[C@@]1(C)COc2cc3c(cc21)OC(F)(F)O3` [Example 284, (7R)-2,2-difluoro-N-{(2S,4S)-7-methoxy-2-[(6-oxopyridazin-1(6H)-yl)methyl]-3,4-dihydro-2H-1-benzopyran-4-yl}-7-methyl-6,7-dihydro-2H-furo[2,3-f][1,3]benzodioxole-7-carboxamide], a half-maximal effect (EC50) was put at 3960 nM and the “Maximum % activity (%)” value stood at 40%.

Consider `COc1ccc2c(c1)O[C@@H](Cn1ncccc1=O)C[C@H]2NC(=O)[C@@]1(C)COc2cc3c(cc21)OC(F)(F)O3` [Example 285, (7R)-2,2-difluoro-N-{(2R,4R)-7-methoxy-2-[(6-oxopyridazin-1(6H)-yl)methyl]-3,4-dihydro-2H-1-benzopyran-4-yl}-7-methyl-6,7-dihydro-2H-furo[2,3-f][1,3]benzodioxole-7-carboxamide], for which the EC50 was determined as 1130 nM and the “Maximum % activity (%)” value is recorded as 54%.

`COC(=O)c1ccc(-c2csc(NC(=O)C3(C)COc4cc5c(cc43)OC(F)(F)O5)n2)cc1` (stereo not shown) [Example 64, methyl 4-{2-[(2,2-difluoro-7-methyl-6,7-dihydro-2H-furo[2,3-f][1,3]benzodioxole-7-carbonyl)amino]-1,3-thiazol-4-yl}benzoate]: the half-maximal effective concentration (EC50) worked out at 7290 nM and the “Maximum % activity (%)” value is on record as 46%.

As for `C[C@]1(C(=O)Nc2cccc(N3CCC(CO)(CCl)C3)n2)COc2cc3c(cc21)OC(F)(F)O3` (stereo partly drawn) [Example 110, (7R)—N-{6-[3-(chloromethyl)-3-(hydroxymethyl)pyrrolidin-1-yl]pyridin-2-yl}-2,2-difluoro-7-methyl-6,7-dihydro-2H-furo[2,3-f][1,3]benzodioxole-7-carboxamide], the EC50 amounted to 3020 nM and the “Maximum % activity (%)” value was 120%.

With `COC(=O)c1ccc([C@H]2C[C@@H](NC(=O)[C@@]3(C)COc4cc5c(cc43)OC(F)(F)O5)c3ccc(OC)cc3O2)cc1` [Example 19, methyl 4-[(2R,4R)-4-{[(7R)-2,2-difluoro-7-methyl-6,7-dihydro-2H-furo[2,3-f][1,3]benzodioxole-7-carbonyl]amino}-7-methoxy-3,4-dihydro-2H-1-benzopyran-2-yl]benzoate], the EC50 was determined as 80 nM and the “Maximum % activity (%)” value came out at 130%.

Consider `C[C@]1(C(=O)Nc2ccc(N3CCCC3)cn2)COc2cc3c(cc21)OC(F)(F)O3` [Example 80, (7R)-2,2-difluoro-7-methyl-N-[5-(pyrrolidin-1-yl)pyridin-2-yl]-6,7-dihydro-2H-furo[2,3-f][1,3]benzodioxole-7-carboxamide], for which a half-maximal effect (EC50) was put at 4750 nM and the “Maximum % activity (%)” value is on record as 147%.

For `CC(C)(C)OC(=O)CN1CCC([C@H]2C[C@@H](NC(=O)[C@@]3(C)COc4cc5c(cc43)OC(F)(F)O5)c3ccc(OC(F)(F)F)cc3O2)CC1` [Example 186, tert-butyl {4-[(2R,4R)-4-{[(7R)-2,2-difluoro-7-methyl-6,7-dihydro-2H-furo[2,3-f][1,3]benzodioxole-7-carbonyl]amino}-7-(trifluoromethoxy)-3,4-dihydro-2H-1-benzopyran-2-yl]piperidin-1-yl}acetate], the EC50 was 670 nM and the “Maximum % activity (%)” value was 189%.

Turning to `C[C@]1(C(=O)Nc2cccc(N3CC4CCCC4(C(=O)O)C3)n2)COc2cc3c(cc21)OC(F)(F)O3` (stereo partly drawn) [Example 117, 2-(6-{[(7R)-2,2-difluoro-7-methyl-6,7-dihydro-2H-furo[2,3-f][1,3]benzodioxole-7-carbonyl]amino}pyridin-2-yl)hexahydrocyclopenta[c]pyrrole-3a(1H)-carboxylic acid], a half-maximal effect (EC50) was put at 1390 nM and the “Maximum % activity (%)” value came out at 147%.

As to `COc1ccc2c(c1)O[C@@H](c1ccc(C(=O)NC3CCS(=O)(=O)CC3)cn1)C[C@H]2NC(=O)[C@@]1(C)COc2cc3c(cc21)OC(F)(F)O3` [Example 217, 6-[(2R,4R)-4-{[(7R)-2,2-difluoro-7-methyl-6,7-dihydro-2H-furo[2,3-f][1,3]benzodioxole-7-carbonyl]amino}-7-methoxy-3,4-dihydro-2H-1-benzopyran-2-yl]-N-(1,1-dioxo-1lambda^6-thian-4-yl)pyridine-3-carboxamide], the EC50 was determined as 120 nM and the “Maximum % activity (%)” value turned out to be 104%.

In the case of `CNC(=O)c1cccc(-c2nc(NC(=O)C3(C)COc4cc5c(cc43)OC(F)(F)O5)ccc2C)c1` (stereo not shown) [Example 76, 2,2-difluoro-7-methyl-N-{5-methyl-6-[3-(methylcarbamoyl)phenyl]pyridin-2-yl}-6,7-dihydro-2H-furo[2,3-f][1,3]benzodioxole-7-carboxamide], the EC50 amounted to 720 nM and the “Maximum % activity (%)” value is listed as 111%.

As for `COc1ccc2c(c1)O[C@H](C1CCC(C(=O)O)CC1)C[C@@H]2NC(=O)[C@]1(C)COc2cc3c(cc21)OC(F)(F)O3` (stereo partly drawn) [Example 293, 4-[(2S,4S)-4-{[(7S)-2,2-difluoro-7-methyl-6,7-dihydro-2H-furo[2,3-f][1,3]benzodioxole-7-carbonyl]amino}-7-methoxy-3,4-dihydro-2H-1-benzopyran-2-yl]cyclohexane-1-carboxylic acid], the EC50 was determined as 1630 nM and the “Maximum % activity (%)” value was found to be 115%.

On to `Cc1ccc(NC(=O)[C@@]2(C)COc3cc4c(cc32)OC(F)(F)O4)nc1-c1cc(C(=O)O)cs1` [Example 127, 5-(6-{[(7R)-2,2-difluoro-7-methyl-6,7-dihydro-2H-furo[2,3-f][1,3]benzodioxole-7-carbonyl]amino}-3-methylpyridin-2-yl)thiophene-3-carboxylic acid], for which the EC50 was 460 nM and the “Maximum % activity (%)” value was 140%.

Take `COc1ccc2c(c1)O[C@@H](COCc1ccccc1)C[C@H]2NC(=O)[C@@]1(C)COc2cc3c(cc21)OC(F)(F)O3` [Example 276, (7R)—N-{(2R,4R)-2-[(benzyloxy)methyl]-7-methoxy-3,4-dihydro-2H-1-benzopyran-4-yl}-2,2-difluoro-7-methyl-6,7-dihydro-2H-furo[2,3-f][1,3]benzodioxole-7-carboxamide]: the half-maximal effective concentration (EC50) amounted to 700 nM and the “Maximum % activity (%)” value is listed as 117%.

With `COc1ccc2c(c1)O[C@@H](c1ccc(C(=O)N3CCC(O)CC3)cn1)C[C@H]2NC(=O)[C@@]1(C)COc2cc3c(cc21)OC(F)(F)O3` [Example 212, (7R)-2,2-difluoro-N-{(2R,4R)-2-[5-(4-hydroxypiperidine-1-carbonyl)pyridin-2-yl]-7-methoxy-3,4-dihydro-2H-1-benzopyran-4-yl}-7-methyl-6,7-dihydro-2H-furo[2,3-f][1,3]benzodioxole-7-carboxamide], the EC50 stood at 30 nM and the “Maximum % activity (%)” value is 119%.

On to `CC1(C(=O)Nc2cccc(N3CC[C@@H](C(=O)O)C3)n2)COc2cc3c(cc21)OC(F)(F)O3` (stereo partly drawn) [Example 8, (3R)-1-{6-[(2,2-difluoro-7-methyl-6,7-dihydro-2H-furo[2,3-f][1,3]benzodioxole-7-carbonyl)amino]pyridin-2-yl}pyrrolidine-3-carboxylic acid], for which the concentration giving a half-maximal response (EC50) was found to be 1470 nM and the “Maximum % activity (%)” value turned out to be 126%.

For `C[C@]1(C(=O)N[C@@H]2C[C@H](C3CCNCC3)Oc3cc(OC(F)(F)F)ccc32)COc2cc3c(cc21)OC(F)(F)O3` [Example 182, (7R)-2,2-difluoro-7-methyl-N-[(2R,4R)-2-(piperidin-4-yl)-7-(trifluoromethoxy)-3,4-dihydro-2H-1-benzopyran-4-yl]-6,7-dihydro-2H-furo[2,3-f][1,3]benzodioxole-7-carboxamide], the midpoint of the response, the EC50, lay at 1680 nM and the “Maximum % activity (%)” value is 195%.

As to `COc1ccc2c(c1)O[C@@H](c1ccc(C(=O)O)cc1)C[C@H]2NC(=O)[C@@]1(C)CCc2c1ccc1c2OCO1` [Example 42, 4-[(2R,4R)-7-methoxy-4-{[(6S)-6-methyl-7,8-dihydro-2H,6H-indeno[4,5-d][1,3]dioxole-6-carbonyl]amino}-3,4-dihydro-2H-1-benzopyran-2-yl]benzoic acid], the EC50 worked out at 1060 nM and the “Maximum % activity (%)” value stood at 61%.

For `COc1ccc2c(c1)O[C@@H](c1ccc(C(=O)N3CCOCC3CO)cn1)C[C@H]2NC(=O)[C@@]1(C)COc2cc3c(cc21)OC(F)(F)O3` (stereo partly drawn) [Example 240, (7R)-2,2-difluoro-N-[(2R,4R)-2-{5-[3-(hydroxymethyl)morpholine-4-carbonyl]pyridin-2-yl}-7-methoxy-3,4-dihydro-2H-1-benzopyran-4-yl]-7-methyl-6,7-dihydro-2H-furo[2,3-f][1,3]benzodioxole-7-carboxamide], a half-maximal effect (EC50) was put at 60 nM and the “Maximum % activity (%)” value was 132%.
